Assay results published in patent US7087623B2, “Thiazole and other heterocyclic ligands for mammalian dopamine, muscarinic and serotonin receptors and transporters, and methods of use thereof” (Sepracor Inc., priority 2001, dated 2006).
Read-outs that look alike come from different tables or passages of the source.

What was measured:
[1] = target: T1, human serotonin 5-HT2B receptor (Homo sapiens, UniProt P41595); assay: Radioligand binding assay, human 5-HT2B receptors ([3H]LSD)
T1 construct: expressed in transfected cells; host or cells: CHO-K1
Procedure, shortened: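 Membranes from CHO-K1 cells stably expressing human 5-HT2B, in modified Tris-HCl pH 7.4, bound with [3H]LSD. Non-specific binding defined with 10 μM serotonin; specific binding counted after filtration and three washes.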

[2] = target: T2, human muscarinic M2 receptor (Homo sapiens, UniProt P08172); assay: Binding to human muscarinic M2 receptors ([3H]N-methylscopolamine)
T2 construct: expressed in transfected cells; host or cells: BSR-M2H
T2 sequence (P08172 1-466): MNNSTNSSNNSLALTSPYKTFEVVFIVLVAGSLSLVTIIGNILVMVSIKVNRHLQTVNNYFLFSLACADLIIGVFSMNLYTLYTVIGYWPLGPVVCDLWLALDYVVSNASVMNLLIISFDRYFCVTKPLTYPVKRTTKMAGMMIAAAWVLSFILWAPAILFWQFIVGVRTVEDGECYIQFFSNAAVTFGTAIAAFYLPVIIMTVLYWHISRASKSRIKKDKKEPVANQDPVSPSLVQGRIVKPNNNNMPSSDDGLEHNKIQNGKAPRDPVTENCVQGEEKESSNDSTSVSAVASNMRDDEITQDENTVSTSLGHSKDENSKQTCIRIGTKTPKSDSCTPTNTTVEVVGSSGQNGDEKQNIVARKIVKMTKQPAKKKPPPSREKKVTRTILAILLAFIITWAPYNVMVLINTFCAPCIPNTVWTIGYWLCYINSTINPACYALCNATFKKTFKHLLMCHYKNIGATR
Procedure: (§1) This assay measures binding of [^3H]N-methylscopolamine to human muscarinic M2 receptors. BSR-M2H cells transfected with a plasmid encoding the human muscarinic M2 receptor were used to prepare membranes in modified Tris-HCl pH 7.4 buffer using standard techniques. A 5 μg aliquot of membrane was incubated with 0.29 nM [^3H]N-methylscopolamine for 60 minutes at 25° C. Non-specific binding was estimated in the presence of 1 μM atropine. Membranes were filtered and washed 3 times and the filters were counted to determine [^3H]N-methylscopolamine specifically bound. See Buckley, N. J., Bonner, T. I., Buckley, C. M. and Brann, M. R. Antagonist binding properties of five cloned muscarinic receptors expressed in CHO-K1 cells. Mol. Pharmacol. 35: 469–476, 1989; and Delmendo, R. E., Michel, A. D. and Whiting, R. L. Affinity of muscarinic receptor antagonists for the three putative muscarinic binding sites. Br. J. Pharmacol. 96: 457–464, 1989.
(§2) The human 5-HT2a and 5-HT2b screens were conducted according to Bonhaus, D. W. et al. Br. J. Pharmacol. 1995, 115, 622. The human […], W. A. et al. J. Neurochem. 1997, 69, 1449. The human 5-HT6 screen was conducted according to Monsama, F. J. et al. Mol. Pharmacol. 1993, 43, 320. The assay to human D3 receptors was conducted according to Sokoloff, P. et al. Nature 1990, 347;146. The human dopamine transporter assay was conducted according to Gu, H. et. al. J. Biol. Chem. 1994, 269 (10);7124; and Giros, B. et al. Trends. Pharmacol. Sci. 1993, 14: 43. The human muscarinic M1–M4 screens were conducted according to Buckley N. J. et al. Mol. Pharmacol. 1989, 35:469.
(§3) The human dopamine transporter assay was conducted according to Gu, H. et. al. J. Biol. Chem. 1994, 269 (10);7124 and Giros, B. et al. Trends. Pharmacol. Sci. 1993, 14: 43. The human muscarinic M1–M4 screens were conducted according to Buckley N. J. et al. Mol. Pharmacol. 199, 35:469

[3] = target: T3, human muscarinic M4 receptor (Homo sapiens, UniProt P08173); assay: Binding to human muscarinic M4 receptors ([3H]N-methylscopolamine)
T3 construct: expressed in transfected cells; host or cells: BSR-M4H
T3 sequence (P08173 1-479): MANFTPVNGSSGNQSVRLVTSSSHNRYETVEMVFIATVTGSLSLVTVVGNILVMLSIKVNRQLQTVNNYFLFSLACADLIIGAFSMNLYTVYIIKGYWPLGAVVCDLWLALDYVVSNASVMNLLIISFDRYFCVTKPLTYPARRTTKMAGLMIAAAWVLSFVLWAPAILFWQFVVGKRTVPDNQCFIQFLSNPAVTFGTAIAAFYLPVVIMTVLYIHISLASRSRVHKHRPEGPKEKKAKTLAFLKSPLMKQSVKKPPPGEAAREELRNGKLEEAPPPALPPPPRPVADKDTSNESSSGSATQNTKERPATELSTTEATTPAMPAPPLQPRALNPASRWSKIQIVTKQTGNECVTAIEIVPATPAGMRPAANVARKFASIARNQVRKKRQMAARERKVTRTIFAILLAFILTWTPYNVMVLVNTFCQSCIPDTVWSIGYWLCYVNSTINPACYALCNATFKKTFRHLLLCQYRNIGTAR
Procedure: as §1, with “muscarinic M4” for “muscarinic M2”, “receptors. BSR-M4H” for “receptors. BSR-M2H”, “filters are” for “filters were”, “469–476,” for “469–476, 1989; and Delmendo, R. E., Michel, A. D. and Whiting, R. L. Affinity of muscarinic receptor antagonists for the three putative muscarinic binding sites. Br. J. Pharmacol. 96: 457–464,”
as §2, §3

[4] = human, Example 100 table, read-out: IC50 (nM) 5-HT2B
[5] = human, Example 100 table, read-out: IC50 (nM) M2
[6] = human, Example 100 table, read-out: IC50 (nM) M4
[7] = human 5-HT2b, Example 16 table, read-out: IC50 (nM) 5-HT2b
[8] = human, Example 101 table, read-out: IC50 (nM) M2
[9] = human, Example 101 table, read-out: IC50 (nM) M4

T1 sequence (P41595 whole entry): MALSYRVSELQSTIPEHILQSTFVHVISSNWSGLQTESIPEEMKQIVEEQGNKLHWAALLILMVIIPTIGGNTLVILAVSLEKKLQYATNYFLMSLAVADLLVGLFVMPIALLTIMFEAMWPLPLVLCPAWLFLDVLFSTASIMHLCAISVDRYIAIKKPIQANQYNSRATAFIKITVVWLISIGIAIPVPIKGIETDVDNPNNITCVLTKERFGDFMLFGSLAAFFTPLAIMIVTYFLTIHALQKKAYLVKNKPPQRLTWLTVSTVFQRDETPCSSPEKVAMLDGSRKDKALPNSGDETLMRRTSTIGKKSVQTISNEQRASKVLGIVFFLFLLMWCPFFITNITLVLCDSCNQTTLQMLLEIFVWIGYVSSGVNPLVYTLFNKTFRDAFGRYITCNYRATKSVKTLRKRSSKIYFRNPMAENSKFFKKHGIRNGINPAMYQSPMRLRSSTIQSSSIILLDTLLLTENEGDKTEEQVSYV

Row | IC50 [2, 5] | IC50 [3, 6] | Structure (SMILES) | IC50 [1, 7] | IC50 [2, 8] | IC50 [3, 9] | also measured
1 | > 1000 nM | < 1000 nM | CN1CCCC1CCNc1nc(C2(c3ccccc3F)CCCCC2)cs1 (racemic) [Compound 128, {4-[1-(2-fluorophenyl)-cyclohexyl]-thiazol-2-yl}-[2-(1-methyl-pyrrolidin-2-yl)-ethyl]-amine] | – | – | – | IC50 [1, 4]: < 1000 nM
2 | > 1000 nM | > 1000 nM | CN1CCCC1CCNc1nc(C2(c3ccccc3F)CCCCC2)cs1 (single isomer, unassigned) [Compound 130, {4-[1-(2-fluorophenyl)-cyclohexyl]-thiazol-2-yl}-[2-(1-methyl-pyrrolidin-2-yl)-ethyl]-amine] | – | – | – | IC50 [1, 4]: < 100 nM
3 | – | – | CN1CCN(c2nc(C3(c4csc5ccc(Cl)cc45)CCOCC3)cs2)CC1 [Compound 36] | < 1000 nM | > 1000 nM | > 1000 nM | –
4 | – | – | Clc1ccc(C2(c3csc(N4CCNCC4)n3)CCOCC2)cc1 [Compound 37] | > 1000 nM | > 1000 nM | < 1000 nM | –
5 | – | – | CN1CCN(c2nc(C3(c4ccccc4)CCOCC3)cs2)CC1 [Compound 59] | – | – | – | IC50 [1]: > 1000 nM; IC50 [2]: > 1000 nM; IC50 [3]: > 1000 nM
6 | – | – | CN1CCN(c2nc(C3(c4cccc(Cl)c4)CCOCC3)cs2)CC1 [Compound 63] | < 1000 nM | > 1000 nM | > 1000 nM | –
7 | – | – | CN1CCN(c2nc(C3(c4ccccc4F)CCCCC3)cs2)CC1 [Compound 83] | < 100 nM | > 1000 nM | < 1000 nM | –
8 | – | – | CN1CCN(c2nc(C3(c4ccccc4F)CCCC3)cs2)CC1 [Compound 93] | < 1000 nM | < 500 nM | < 500 nM | –

Row | Structure (SMILES) | IC50 [2, 5] | IC50 [3, 6] | IC50 [1, 7] | IC50 [2, 8] | IC50 [3, 9] | also measured
9 | CN1CCN(c2nc(C3(c4ccccc4F)CCOCC3)cs2)CC1 [Compound 112] | > 1000 nM | > 1000 nM | – | – | – | –
